Test results reported in US10294202B2, “Pyrrolidinones as herbicides” (FMC Corporation, priority 2013, dated 2019).

Legend:
[1] = tested on: pigweed; assay: Test A pre-/postemergence herbicide test; format: in vivo, Amaranthus retroflexus; details: for Plant response rating, Pigweed: 0 to 100 scale
How it was run: (§1)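 Formulated compound (non-phytotoxic solvent, surfactant) sprayed pre- onto soil of seeded loam/sand pots or post- onto seedlings at 1–2 leaves; ~10 d greenhouse; 0–100 visual control rating versus untreated.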

[2] = tested on: barnyardgrass; assay: Test A pre-/postemergence herbicide test; format: in vivo, Echinochloa crus-galli
How it was run: as §1

[3] = tested on: sedge, umbrella; assay: Test B flooded paddy test; format: in vivo, Cyperus difformis; details: Flood, scale of 0 to 100 where 0 is no effect and 100 is complete control
How it was run: (§2)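 Plants grown to 2-leaf stage; pots flooded 3 cm above soil and compound applied directly into paddy water, depth held throughout. Visual rating against untreated controls after 13 to 15 days in greenhouse, 0 (no effect) to 100 (complete control).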

[4] = tested on: galium; assay: Test A postemergence herbicide test; format: in vivo, Galium aparine; details: for Plant response rating, Galium: 125 g ai/ha, 0 to 100 scale, 0 is no effect, 100 is complete control; for Galium plant response rating (0 to 100 scale, 0 is no effect, 100 is complete control): 500 g ai/ha
How it was run: (§3)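 Potted in loam soil/sand blend; postemergence application at 1–2 leaf stage (2–10 cm). Greenhouse ~10 d. Visual injury vs untreated, 0–100 scale; 100 = complete control.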

[5] = tested on: barnyardgrass; assay: Test B flooded paddy test; format: in vivo, Echinochloa crus-galli; details: Flood, scale of 0 to 100 where 0 is no effect and 100 is complete control
How it was run: as §2

[6] = tested on: kochia; assay: Test A pre-/postemergence herbicide test; format: in vivo, Kochia scoparia; details: for Plant response rating, Kochia: 0 to 100 scale
How it was run: as §1

[7] = tested on: giant foxtail; assay: Test A pre-/postemergence herbicide test; format: in vivo, Setaria faberii; details: for Plant response rating, Foxtail, Giant: 0 to 100 scale
How it was run: as §1

[8] = tested on: blackgrass; assay: Test A postemergence herbicide test; format: in vivo, Alopecurus myosuroides; details: for Plant response rating, Blackgrass: 125 g ai/ha, 0 to 100 scale, 0 is no effect, 100 is complete control; for Blackgrass plant response rating (0 to 100 scale, 0 is no effect, 100 is complete control): 500 g ai/ha
How it was run: as §3

[9] = tested on: ryegrass, Italian; assay: Test A pre-/postemergence herbicide test; format: in vivo, Lolium multiflorum; details: for Plant response rating, Ryegrass, Italian: 0 to 100 scale
How it was run: as §1

[10] = tested on: rice; assay: Test B flooded paddy test; format: in vivo, Oryza sativa; details: Flood, scale of 0 to 100 where 0 is no effect and 100 is complete control
How it was run: as §2

[11] = tested on: ragweed; assay: Test A pre-/postemergence herbicide test; format: in vivo, Ambrosia elatior; details: for Plant response rating, Ragweed: 0 to 100 scale
How it was run: as §1

[12] = tested on: corn; assay: Test A pre-/postemergence herbicide test; format: in vivo, Zea mays; details: Postemergence; for Plant response rating, Corn: 125 g ai/ha, 0 to 100 scale, 0 is no effect, 100 is complete control; for Corn plant response rating (0 to 100 scale, 0 is no effect, 100 is complete control): 500 g ai/ha
How it was run: as §1

[13] = tested on: ducksalad; assay: Test B flooded paddy test; format: in vivo, Heteranthera limosa; details: Flood, scale of 0 to 100 where 0 is no effect and 100 is complete control
How it was run: as §2

[14] = tested on: wheat; assay: Test A pre-/postemergence herbicide test; format: in vivo, Triticum aestivum; details: Postemergence; for Plant response rating, Wheat: 125 g ai/ha, 0 to 100 scale, 0 is no effect, 100 is complete control; for Wheat plant response rating (0 to 100 scale, 0 is no effect, 100 is complete control): 500 g ai/ha
How it was run: as §1

[15] = 125 g ai/ha, visual rating, 0 no effect, 100 complete control, approximately 10 days, preemergence
[16] = Postemergence, 125 g ai/ha, 0 is no effect, 100 is complete control
[17] = preemergence, 500 g ai/ha, 0 is no effect and 100 is complete control
[18] = 125 g ai/ha, visual rating, 0 to 100 scale, 0 no effect, 100 complete control, approximately 10 days, preemergence
[19] = Postemergence, 125 g ai/ha, 0 to 100 scale, 0 is no effect, 100 is complete control
[20] = preemergence, 500 g ai/ha, 0 to 100 scale (0 no effect, 100 complete control)

Compound | Plant response rating, Pigweed [1, 15] | Plant response rating, Pigweed [1, 16] | Pigweed plant response rating (0 to 100 scale, 0 is no effect, 100 is complete control) ([1]; Postemergence, 500 g ai/ha) | Plant response rating, Pigweed [1, 17] | Plant response rating, Barnyardgrass [2, 18] | Plant response rating, Barnyardgrass [2, 19] | Barnyardgrass plant response rating (0 to 100 scale, 0 is no effect, 100 is complete control) ([2]; Postemergence, 500 g ai/ha) | Plant response rating, Galium [4] | Galium plant response rating (0 to 100 scale, 0 is no effect, 100 is complete control) [4] | Plant response rating, Kochia [6, 15] | Plant response rating, Kochia [6, 16] | Kochia plant response rating (0 to 100 scale, 0 is no effect, 100 is complete control) ([6]; Postemergence, 500 g ai/ha) | Plant response rating, Kochia [6, 17] | Plant response rating, Foxtail, Giant [7, 15] | Plant response rating, Foxtail, Giant [7, 16] | Foxtail, Giant plant response rating (0 to 100 scale, 0 is no effect, 100 is complete control) ([7]; Postemergence, 500 g ai/ha) | Plant response rating, Blackgrass [8] | Blackgrass plant response rating (0 to 100 scale, 0 is no effect, 100 is complete control) [8] | Plant response rating, Ryegrass, Italian [9, 15] | Plant response rating, Ryegrass, Italian [9, 16] | further results
O=C1NCC(c2cccc(C(F)F)c2)C1C(=O)Nc1cccc(F)c1F (racemic) [Compound 164] | 50 | 20 | 60 | 70 | 90 | 90 | 90 | 50 | 60 | 60 | 60 | 70 | 80 | 90 | 70 | 90 | 50 | 70 | 20 | 40 | Plant response rating, Barnyardgrass [2, 20]: 90; Plant response rating, Sedge, Umbrella ([3]; 500 g ai/ha): 0; Plant response rating, Barnyardgrass ([5]; 500 g ai/ha): 80; Plant response rating, Foxtail, Giant ([7]; preemergence, 500 g ai/ha): 90; Ryegrass, Italian plant response rating (0 to 100 scale, 0 is no effect, 100 is complete control) ([9]; Postemergence, 500 g ai/ha): 50; Plant response rating, Ryegrass, Italian [9, 17]: 50; Plant response rating, Rice ([10]; 500 g ai/ha): 20; Plant response rating, Ragweed [11, 15]: 20; Plant response rating, Ragweed [11, 16]: 20; Ragweed plant response rating (0 to 100 scale, 0 is no effect, 100 is complete control) ([11]; Postemergence, 500 g ai/ha): 50; Plant response rating, Ragweed [11, 17]: 60; Plant response rating, Corn [12]: 50; Corn plant response rating (0 to 100 scale, 0 is no effect, 100 is complete control) [12]: 80; Plant response rating, Ducksalad ([13]; 500 g ai/ha): 100; Plant response rating, Wheat [14]: 40; Wheat plant response rating (0 to 100 scale, 0 is no effect, 100 is complete control) [14]: 80
CCc1cccc(C2CNC(=O)C2C(=O)Nc2ccccc2F)c1 (racemic) [Compound 169] | 0 | 0 | 0 | 20 | 90 | 90 | 90 | 20 | 50 | 40 | 0 | 40 | 60 | 80 | 60 | 90 | 30 | 60 | 0 | 20 | Plant response rating, Barnyardgrass [2, 20]: 90; Plant response rating, Sedge, Umbrella ([3]; 500 g ai/ha): 0; Plant response rating, Barnyardgrass ([5]; 500 g ai/ha): 80; Plant response rating, Foxtail, Giant ([7]; preemergence, 500 g ai/ha): 90; Ryegrass, Italian plant response rating (0 to 100 scale, 0 is no effect, 100 is complete control) ([9]; Postemergence, 500 g ai/ha): 40; Plant response rating, Ryegrass, Italian [9, 17]: 20; Plant response rating, Rice ([10]; 500 g ai/ha): 0; Plant response rating, Ragweed [11, 15]: 0; Plant response rating, Ragweed [11, 16]: 0; Ragweed plant response rating (0 to 100 scale, 0 is no effect, 100 is complete control) ([11]; Postemergence, 500 g ai/ha): 0; Plant response rating, Ragweed [11, 17]: 20; Plant response rating, Corn [12]: 0; Corn plant response rating (0 to 100 scale, 0 is no effect, 100 is complete control) [12]: 50; Plant response rating, Ducksalad ([13]; 500 g ai/ha): 100; Plant response rating, Wheat [14]: 0; Wheat plant response rating (0 to 100 scale, 0 is no effect, 100 is complete control) [14]: 50
COc1ccc(C2CNC(=O)C2C(=O)Nc2ccccc2F)cc1C(F)(F)F (racemic) [Compound 209] | 0 | 0 | 0 | 20 | 30 | 60 | 80 | 0 | 0 | 0 | 0 | 0 | 20 | 50 | 40 | 70 | 0 | 20 | 0 | 0 | Plant response rating, Barnyardgrass ([2]; preemergence, 500 g ai/ha, 0 to 100 scale, 0 is no effect and 100 is complete control): 60; Plant response rating, Sedge, Umbrella ([3]; 1000 g ai/ha): 0; Plant response rating, Barnyardgrass ([5]; 1000 g ai/ha): 45; Plant response rating, Foxtail, Giant [7, 17]: 90; Ryegrass, Italian plant response rating (0 to 100 scale, 0 is no effect, 100 is complete control) ([9]; Postemergence, 500 g ai/ha): 20; Plant response rating, Ryegrass, Italian [9, 17]: 20; Plant response rating, Rice ([10]; 1000 g ai/ha): 0; Plant response rating, Ragweed [11, 15]: 0; Plant response rating, Ragweed [11, 16]: 0; Ragweed plant response rating (0 to 100 scale, 0 is no effect, 100 is complete control) ([11]; Postemergence, 500 g ai/ha): 0; Plant response rating, Ragweed [11, 17]: 0; Plant response rating, Corn [12]: 0; Corn plant response rating (0 to 100 scale, 0 is no effect, 100 is complete control) [12]: 0; Plant response rating, Ducksalad ([13]; 1000 g ai/ha): 95; Plant response rating, Wheat [14]: 0; Wheat plant response rating (0 to 100 scale, 0 is no effect, 100 is complete control) [14]: 0
